Experimental data reported in patent publication US20200095280A1, “Methods of using GM6 in diagnosing and treating Alzheimers disease” (Genervon Biopharmaceuticals LLC, priority 2016, published 2020).
Where no end group is shown, it is not given here.

Test: Blood brain barrier transit: ELISA of brain homogenate after IV injection
Format: in vivo, C57BL6 mice
Details: single bolus IV 0.2 and 2.0 mg/kg, four hours; vs control P=0.0001
Protocol: The ability to transit to the brain was tested. C57BL6 mice were injected with a single bolus IV tail vein injection of GM6 at 0.2 and 2.0 mg/kg. At four hours, the animals were sacrificed, and half of the brain was frozen for ELISA analysis.

FSRYAR [GM6, FSRYAR]
GM6 in brain homogenate supernatant (ELISA): detected GM6 at statistically significant levels
